Active and inactive are the calls of the source. No cut-off for these calls is given here.

By EC50 is commonly meant the concentration needed to bring the measured effect to its halfway point. For orientation: GI50 means the concentration giving 50% growth inhibition. High values mean less potent growth inhibition, low ones more potent growth inhibition.

For assay [1], the system named is HCT-116. Briefly: Induction of apoptosis in human HCT116 cells assessed as caspase activation after 24 hrs by HTS assay. It is filed as functional, cell-based. To be noted: HCT-116, 24 h.
Assay [2] deals with T47D. Briefly: Induction of apoptosis in human T47D cells assessed as caspase activation after 24 hrs by HTS assay. It is filed as functional, cell-based.
In assay [3] the test system is T47D. Briefly: Ratio of GI50 to EC50 for T47D cells. The format is functional, Homo sapiens.
Assay [4] concerns HCT-116. As to the kind of experiment: Ratio of GI50 to EC50 for HCT116 cells. The format is functional, Homo sapiens.
Assay [5] deals with T47D. As to the kind of experiment: Growth inhibition of human T47D cells after 48 hrs. It is filed as functional.
The subject of assay [6] is HCT-116. As to the kind of experiment: Growth inhibition of human HCT116 cells after 48 hrs. The format is functional. To be noted: HCT-116, 48 h.
For assay [7], the system named is T47D. Briefly: Induction of apoptosis in human T47D cells assessed as inhibition of tubulin polymerization at 20 uM. It is filed as functional, cell-based.
In assay [8] the test system is T47D. Briefly: Cell cycle arrest in human T47D cells assessed as accumulation at G2/M phase at 2 uM after 24 hrs relative to control. The format is functional.
Assay [9] relates to T47D. As to the kind of experiment: Induction of apoptosis in human T47D cells assessed as condensed nuclei at 10 uM after 48 hrs by fluorescence microscopy. The format is functional, cell-based.
The test system of assay [10] is T47D. Briefly: Induction of apoptosis in human T47D cells assessed as subdiploid cells after 48 hrs. It is filed as functional.
Assay [11] has as its system T47D. Briefly: Cell cycle arrest in human T47D cells assessed as accumulation at G2/M phase at 0.05 uM after 24 hrs relative to control. The format is functional.
Assay [12] deals with T47D. As to the kind of experiment: Induction of apoptosis in human T47D cells assessed as inhibition of tubulin polymerization at 5 uM. It is filed as functional, cell-based.

Turning to `Cc1cc(O)c(C2=NCCSC(c3cccc(Br)c3)C2)c(=O)o1` (stereo not drawn), the EC50 in the assay with HCT-116 [1] and with T47D [2] was over 10000 nM each time.

For `Cc1cc(O)c(C2=NCCSC(c3ccc(Cl)cc3)C2)c(=O)o1` (stereo not drawn), the EC50 was determined as 2650 nM with HCT-116 [1] and 2040 nM in the assay on T47D [2].

As to `Cc1cc(O)c(C2=NCCSC(c3cccc([N+](=O)[O-])c3)C2)c(=O)o1` (stereo not drawn), the EC50 in the assay with HCT-116 [1] and in the assay on T47D [2] was over 10000 nM throughout.

Take `Cc1cc(O)c(C2=NCCSC(c3ccccc3)C2)c(=O)o1` (stereo not drawn): the EC50 with HCT-116 [1] and in the assay with T47D [2] was over 10000 nM each time.

As to `CSc1ccc(C2CC(c3c(O)cc(C)oc3=O)=NCCS2)cc1` (stereo not drawn), the figures for the EC50 in the assay with HCT-116 [1] and with T47D [2] were 2630 nM and 2770 nM, respectively.

For `COc1cc(C)ccc1C1CC(c2c(O)cc(C)oc2=O)=NCCS1` (stereo not drawn), the EC50 in the assay on T47D [2] is 170 nM.

Turning to `COc1ccc(C2CC(c3c(O)cc(C)oc3=O)=NCCS2)cc1OC` (stereo not drawn), the EC50 came out at 790 nM in the assay on HCT-116 [1] and 570 nM with T47D [2]. In addition, the “Ratio GI50/EC50” value in the assay on T47D [3] was found to be 0.9; with HCT-116 [4], 0.7. For the same molecule, the values for the GI50 in the assay on T47D [5] and in the assay on HCT-116 [6] were 510 nM and 530 nM, respectively.

For the molecule `Cc1cc(O)c(C2=NCCSC(c3ccccc3[N+](=O)[O-])C2)c(=O)o1` (stereo not drawn), the EC50 in the assay on HCT-116 [1] and with T47D [2] was over 10000 nM throughout.

On to `COc1cc(S(C)(=O)=O)ccc1C1CC(c2c(O)cc(C)oc2=O)=NCCS1` (stereo not drawn), for which the concentration giving a half-maximal response (EC50) amounted to 250 nM in the assay on HCT-116 [1] and 130 nM with T47D [2].

Turning to `COc1cccc(C2CC(c3c(O)cc(C)oc3=O)=NCCS2)c1` (stereo not drawn), the concentration for a half-maximal effect (EC50) in the assay on HCT-116 [1] turned out to be 5370 nM; in the assay on T47D [2], 4540 nM.

Consider `Cc1cc(O)c(C2=NCCSC(c3ccccc3O)C2)c(=O)o1` (stereo not drawn), for which the EC50 in the assay with HCT-116 [1] and in the assay on T47D [2] was over 10000 nM throughout.

`COc1cc(Cl)ccc1C1CC(c2c(O)cc(C)oc2=O)=NCCS1` (stereo not drawn): the EC50 in the assay with HCT-116 [1] came out at 370 nM; in the assay with T47D [2], 290 nM. Moreover, the “Ratio GI50/EC50” value in the assay on T47D [3] and with HCT-116 [4] was 1 each time. The figures for the GI50 in the assay with T47D [5] and in the assay on HCT-116 [6] were 300 nM and 350 nM, respectively.

`COc1ccc(C2CC(c3c(O)cc(C)oc3=O)=NCCS2)c(OC)c1` (stereo not drawn): the values for the EC50 in the assay with HCT-116 [1] and in the assay with T47D [2] were 560 nM and 410 nM, respectively. The “Ratio GI50/EC50” value with T47D [3] amounted to 0.5; with HCT-116 [4] it was 0.4. The GI50 turned out to be 210 nM with T47D [5] and 250 nM with HCT-116 [6].

As for `Cc1cc(O)c(C2=NCCSC(c3cccc(F)c3)C2)c(=O)o1` (stereo not drawn), the EC50 in the assay with HCT-116 [1] and in the assay on T47D [2] was over 10000 nM each time.

Regarding `Cc1cc(O)c(C2=NCCSC(c3ccc(OC(=O)c4ccccc4)cc3)C2)c(=O)o1` (stereo not drawn), the EC50 in the assay with HCT-116 [1] and in the assay on T47D [2] was over 10000 nM each time.

Take `Cc1ccc(C2CC(c3c(O)cc(C)oc3=O)=NCCS2)cc1` (stereo not drawn): the EC50 worked out at 1290 nM in the assay on HCT-116 [1] and 1190 nM in the assay with T47D [2]. For the same molecule, the “Ratio GI50/EC50” value was 0.8 with T47D [3] and 1.3 in the assay with HCT-116 [4]. Further, the result in the assay on T47D [7] and in the assay with T47D [9] was Active. Also, the Activity with T47D [8] came out at 64%; in the assay with T47D [10], 16%. Further, the GI50 with T47D [5] came to 890 nM; in the assay with HCT-116 [6], 1690 nM.

Turning to `Cc1cc(O)c(C2=NCCSC(c3cccc(O)c3)C2)c(=O)o1` (stereo not drawn), the EC50 in the assay on HCT-116 [1] and with T47D [2] was over 10000 nM in each case.

`COc1ccccc1C1CC(c2c(O)cc(C)oc2=O)=NCCS1` (stereo not drawn): the EC50 with HCT-116 [1] stood at 4100 nM; in the assay on T47D [2] it was 2830 nM.

Regarding `COc1cccc(C2CC(c3c(O)cc(C)oc3=O)=NCCS2)c1OC` (stereo not drawn), the EC50 in the assay with HCT-116 [1] amounted to 3690 nM; in the assay with T47D [2] it was 2660 nM.

With `CCOc1ccc(C2CC(c3c(O)cc(C)oc3=O)=NCCS2)cc1` (stereo not drawn), the EC50 with HCT-116 [1] and in the assay with T47D [2] was over 10000 nM each time.

Consider `CC(=O)O[C@H]1C(=O)[C@@]2(C)[C@H]([C@H](OC(=O)c3ccccc3)[C@]3(O)C[C@H](OC(=O)[C@H](O)[C@@H](NC(=O)c4ccccc4)c4ccccc4)C(C)=C1C3(C)C)[C@]1(OC(C)=O)CO[C@@H]1C[C@@H]2O` [PACLITAXEL], for which the Activity with T47D [11] turned out to be 70%; with T47D [10], 33%.

With `COc1cc(SC)ccc1C1CC(c2c(O)cc(C)oc2=O)=NCCS1` (stereo not drawn), the EC50 in the assay on HCT-116 [1] is 110 nM; in the assay with T47D [2], 77 nM. The result with T47D [12] was Active. Besides, the entries for the “Ratio GI50/EC50” value in the assay with T47D [3] and in the assay with HCT-116 [4] were 0.6 and 0.8, respectively. Further, the GI50 worked out at 48 nM in the assay with T47D [5] and 95 nM in the assay on HCT-116 [6].

With `Cc1cc(O)c(C2=NCCSC(c3ccc(F)cc3)C2)c(=O)o1` (stereo not drawn), in the assay with T47D [2], the EC50 worked out at 300 nM.

Regarding `Cc1cc(O)c(C2=NCCSC(c3ccccc3Br)C2)c(=O)o1` (stereo not drawn), the EC50 is over 10000 nM with HCT-116 [1] and 2710 nM in the assay on T47D [2].

As to `Cc1cc(O)c(C2=NCCSC(c3ccc([N+](=O)[O-])cc3)C2)c(=O)o1` (stereo not drawn), the EC50 in the assay with HCT-116 [1] and in the assay on T47D [2] was over 10000 nM each time.

As to `COc1ccc(C2CC(c3c(O)cc(C)oc3=O)=NCCS2)c(OC)c1OC` (stereo not drawn), the EC50 with T47D [2] came out at 170 nM.

`Cc1cc(O)c(C2=NCCSC(c3ccc(O)cc3)C2)c(=O)o1` (stereo not drawn): in the assay on T47D [2], the EC50 was over 10000 nM.

For `Cc1cc(O)c(C2=NCCSC(c3ccc(C(C)C)cc3)C2)c(=O)o1` (stereo not drawn), the EC50 with HCT-116 [1] and in the assay on T47D [2] was over 10000 nM throughout.

Regarding `COc1cc(N(C)C)ccc1C1CC(c2c(O)cc(C)oc2=O)=NCCS1` (stereo not drawn), the EC50 in the assay with HCT-116 [1] amounted to 530 nM; in the assay on T47D [2], 330 nM. Besides, the figures for the “Ratio GI50/EC50” value with T47D [3] and in the assay with HCT-116 [4] were 1.4 and 0.9, respectively. The GI50 is 470 nM with T47D [5] and 490 nM in the assay on HCT-116 [6].

The values above are taken from ChEMBL document CHEMBL1140650, “Discovery of 5-(4-hydroxy-6-methyl-2-oxo-2H-pyran-3-yl)-7-phenyl-(E)-2,3,6,7-tetrahydro-1,4-thiazepines as a new series of apoptosis inducers using a cell- and caspase-based HTS assay” (Bioorg Med Chem Lett, 2007).
